Entries after “also recorded” stand apart in the source; their conditions may differ.
Key:
Th1 and Th2 responses = assay: Modulation of Th1 and Th2 responses at administered dose; assay type: in vivo
Source text: The effects of 2-β-D-ribofuranosylthiazole-4-carboxamide (Tiazofurin), a synthetic C-nucleoside analogue, on GTP levels supports this view. Tumor cells are characterized by high levels of inosine monophosphate dehydrogenase (IMP DH) activity, and it is known that IMP DH is the rate-limiting enzyme of GTP biosynthesis. Weber, G., IMP Dehydrogenase and GTP as Targets in Human Leukemia Treatment. Adv. Exp. Med. Biol. 309B:287-292 (1991). […] Weber, G., Critical Issues in Chemotherapy with Tiazofurin, Adv. Enzyme Regul. 29:75-95 (1989). Typical initial doses of Tiazofurin are about 4,400 mg/m^2, with consolidation doses of about 1100 to 3300 mg/m^2. […] In one aspect of the present invention it is contemplated that much smaller doses of Tiazofurin, in the range of 1/10th to one-half that set forth above, would be sufficient to specifically suppress either a Th1 response or a Th2 response without greatly reducing the other response.
The effects of 1β-D-ribofuranosyl-1,2,4-triazole-3-carboxamide (Ribavirin) also supports the present theory. […] Yamada, Y. et al., Action of the Active Metabolites of Tiazofurin and Ribavirin on Purified IMP Dehydrogenase, Biochem. 27:2193-2196 (1988). Ribavirin proceeds under a different mechanism than Tiazofurin in inhibiting IMP DH, however, acting on a different site on the enzyme molecule. Ribavirin is converted to its active metabolite, ribavirin-monophosphate (RMP), which inhibits the enzyme at the IMP-XMP site of IMP DH. As with Tiazofurin, the affinity of Ribavirin's active form to the enzyme is higher than that of the natural metabolite.
In another aspect of the invention, an abnormality reflected in increased response in one group of cytokines is treated by administering a nucleoside or other compound that increases response in another group of cytokines. Thus, for example, a common rapid onset type of allergy results in an abnormally elevated Th2 response.
It is also contemplated that an abnormality reflected in increased response in one group of cytokines can be treated by administering a nucleoside that increases response in another group of cytokines.

[1] = tested on: inosine monophosphate dehydrogenase (IMP DH); settings: cited from earlier work
guanine nucleotide pools = settings: cited from earlier work
tumors = settings: in vivo; cited from earlier work
[2] = approximately 600 to 1000 mg/day

| Compound | Th1 response (Th1 and Th2 responses; [2]) | Th2 response (Th1 and Th2 responses; [2]) | Th1 response (Th1 and Th2 responses; low dosages of about 500 mg/day to about 1,000 mg/day) | Th1 and Th2 responses (Th1 and Th2 responses; relatively high doses, approximately 2200 mg/m^2 or about 1200-1500 mg/day for an adult) | IMP DH activity [1] | Th1 and Th2 responses (Th1 and Th2 responses; Tiazofurin initial doses about 4,400 mg/m^2, consolidation doses about 1100 to 3300 mg/m^2) | guanine nucleotide pools (guanine nucleotide pools) | tumor remission (tumors) |
| --- | --- | --- | --- | --- | --- | --- | --- | --- |
| NC(=O)c1ncn([C@@H]2O[C@H](CO)[C@@H](O)[C@H]2O)n1 [Ribavirin, 1β-D-ribofuranosyl-1,2,4-triazole-3-carboxamide] | promotes a Th1 response; also recorded: Th1 response is induced | suppresses a Th2 response; also recorded: Th2 response is suppressed | increases Th1 response | both Th1 and Th2 responses are inhibited | inhibit IMP DH | – | – | – |
| NC(=O)c1csc([C@@H]2O[C@H](CO)[C@@H](O)[C@H]2O)n1 [Tiazofurin, 2-β-D-ribofuranosylthiazole-4-carboxamide] | – | – | – | – | selectively block IMP DH activity | greatly reduced | deplete guanine nucleotide pools | forces various tumors into remission |

— US6423695B1, “Cytokine related treatments of disease” (Ribapharm, Inc., priority 1998, dated 2002)
